Measurements: patent publication US9790210B2, “N-(monocyclic aryl),N'-pyrazolyl-urea, thiourea, guanidine and cyanoguanidine compounds as TrkA kinase inhibitors” (Array BioPharma Inc., priority 2012, dated 2017)

Tests used:
Assay in all cases: KinaseProfiler
Assay type in all cases: biochemical
Settings in all cases: 10 μM, ATP near Km
ARKS = target: T1, ARKS (Homo sapiens, UniProt O60285)
T1 construct: purchased Millipore (KinaseProfiler service)
Summary of the method: (§1)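 Kinase activity was assessed with 10 μM compound under ATP-near-Km conditions specific to each enzyme. Duplicates were averaged and expressed relative to control as POC.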

AURKA = target: T2, AURKA (Homo sapiens, UniProt O14965)
T2 construct: purchased Millipore (KinaseProfiler service)
T2 sequence (O14965 whole entry): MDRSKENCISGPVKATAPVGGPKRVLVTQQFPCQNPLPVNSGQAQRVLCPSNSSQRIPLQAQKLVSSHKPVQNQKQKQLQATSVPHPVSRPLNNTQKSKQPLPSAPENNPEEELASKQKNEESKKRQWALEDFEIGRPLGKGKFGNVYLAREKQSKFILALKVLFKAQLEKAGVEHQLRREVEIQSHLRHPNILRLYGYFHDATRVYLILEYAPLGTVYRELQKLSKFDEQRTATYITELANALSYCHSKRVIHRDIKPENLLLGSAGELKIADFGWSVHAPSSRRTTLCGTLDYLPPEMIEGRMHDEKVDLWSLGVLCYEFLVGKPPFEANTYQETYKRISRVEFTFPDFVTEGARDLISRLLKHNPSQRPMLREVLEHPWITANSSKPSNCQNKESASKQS
Summary of the method: as §1

CDK5/p25 = target: T3, CDK5/p25 (Homo sapiens, UniProt Q00535)
T3 construct: purchased Millipore, Inc. (KinaseProfiler service)
Summary of the method: as §1

CHK1 = target: T4, CHK1 (Homo sapiens, UniProt O14757)
T4 construct: purchased Millipore, Inc. (KinaseProfiler service)
T4 sequence (O14757 whole entry): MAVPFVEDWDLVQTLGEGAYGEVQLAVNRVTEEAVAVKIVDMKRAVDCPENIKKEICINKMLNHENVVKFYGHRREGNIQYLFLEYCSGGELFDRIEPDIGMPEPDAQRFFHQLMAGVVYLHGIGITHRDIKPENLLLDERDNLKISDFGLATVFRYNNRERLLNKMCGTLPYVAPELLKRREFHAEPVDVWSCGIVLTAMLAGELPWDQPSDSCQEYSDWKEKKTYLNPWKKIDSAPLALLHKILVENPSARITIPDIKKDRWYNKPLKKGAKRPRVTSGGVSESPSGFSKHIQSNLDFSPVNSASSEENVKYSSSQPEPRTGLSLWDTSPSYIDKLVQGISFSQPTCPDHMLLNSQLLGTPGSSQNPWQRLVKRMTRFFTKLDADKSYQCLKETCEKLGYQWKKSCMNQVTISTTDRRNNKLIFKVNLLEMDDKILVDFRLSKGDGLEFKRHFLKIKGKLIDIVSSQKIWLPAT
Summary of the method: as §1

CK1gamma1 = target: T5, CK1gamma1 (Homo sapiens, UniProt Q9HCP0)
T5 construct: purchased Millipore, Inc. (KinaseProfiler service)
Summary of the method: as §1

CK1gamma2 = target: T6, CK1gamma2 (Homo sapiens, UniProt P78368)
T6 construct: purchased Millipore, Inc. (KinaseProfiler service)
Summary of the method: as §1

DCAMKL2 = target: T7, DCAMKL2 (Homo sapiens, UniProt Q8N568)
T7 construct: purchased Millipore, Inc. (KinaseProfiler service)
Summary of the method: as §1

ERK1 = target: T8, ERK1 (Homo sapiens, UniProt P27361)
T8 construct: purchased Millipore, Inc. (KinaseProfiler service)
Summary of the method: as §1

ERK2 = target: T9, ERK2 (Homo sapiens, UniProt P28482)
T9 construct: purchased Millipore, Inc. (KinaseProfiler service)
Summary of the method: as §1

EphB4 = target: T10, EphB4 (Homo sapiens, UniProt P54760)
T10 construct: purchased Millipore, Inc. (KinaseProfiler service)
Summary of the method: as §1

FAK2 = target: T11, FAK2 (Homo sapiens, UniProt Q14289)
T11 construct: purchased Millipore, Inc. (KinaseProfiler service)
Summary of the method: as §1

FGFR1 = target: T12, FGFR1 (Homo sapiens, UniProt P11362)
T12 construct: purchased Millipore, Inc. (KinaseProfiler service)
T12 sequence (P11362 22-822): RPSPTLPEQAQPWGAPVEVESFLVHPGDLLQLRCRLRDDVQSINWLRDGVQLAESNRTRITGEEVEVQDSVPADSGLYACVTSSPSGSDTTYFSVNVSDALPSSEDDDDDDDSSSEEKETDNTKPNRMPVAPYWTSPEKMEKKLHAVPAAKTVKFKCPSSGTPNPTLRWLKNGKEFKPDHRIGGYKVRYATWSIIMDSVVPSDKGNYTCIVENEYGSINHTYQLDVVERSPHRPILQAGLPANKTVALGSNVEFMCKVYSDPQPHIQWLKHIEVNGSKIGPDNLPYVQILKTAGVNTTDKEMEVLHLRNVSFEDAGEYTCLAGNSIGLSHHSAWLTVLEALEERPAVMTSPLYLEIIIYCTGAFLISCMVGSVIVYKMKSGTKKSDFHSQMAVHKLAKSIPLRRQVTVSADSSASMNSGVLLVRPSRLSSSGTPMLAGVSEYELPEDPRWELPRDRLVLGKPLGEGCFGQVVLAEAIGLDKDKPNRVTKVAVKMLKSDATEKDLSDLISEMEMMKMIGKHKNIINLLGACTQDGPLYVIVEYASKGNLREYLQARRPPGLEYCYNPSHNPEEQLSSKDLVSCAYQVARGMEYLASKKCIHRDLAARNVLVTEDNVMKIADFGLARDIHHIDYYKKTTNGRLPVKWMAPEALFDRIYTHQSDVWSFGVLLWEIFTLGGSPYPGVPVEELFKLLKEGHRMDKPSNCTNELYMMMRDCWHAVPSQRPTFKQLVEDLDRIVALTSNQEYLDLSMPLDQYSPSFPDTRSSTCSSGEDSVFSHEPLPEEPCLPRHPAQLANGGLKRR
Summary of the method: as §1

Flt1 = target: T13, Flt1 (Homo sapiens, UniProt P17948)
T13 construct: purchased Millipore, Inc. (KinaseProfiler service)
Summary of the method: as §1

Flt4 = target: T14, Flt4 (Homo sapiens, UniProt P35916)
T14 construct: purchased Millipore, Inc. (KinaseProfiler service)
T14 sequence (P35916 25-1363): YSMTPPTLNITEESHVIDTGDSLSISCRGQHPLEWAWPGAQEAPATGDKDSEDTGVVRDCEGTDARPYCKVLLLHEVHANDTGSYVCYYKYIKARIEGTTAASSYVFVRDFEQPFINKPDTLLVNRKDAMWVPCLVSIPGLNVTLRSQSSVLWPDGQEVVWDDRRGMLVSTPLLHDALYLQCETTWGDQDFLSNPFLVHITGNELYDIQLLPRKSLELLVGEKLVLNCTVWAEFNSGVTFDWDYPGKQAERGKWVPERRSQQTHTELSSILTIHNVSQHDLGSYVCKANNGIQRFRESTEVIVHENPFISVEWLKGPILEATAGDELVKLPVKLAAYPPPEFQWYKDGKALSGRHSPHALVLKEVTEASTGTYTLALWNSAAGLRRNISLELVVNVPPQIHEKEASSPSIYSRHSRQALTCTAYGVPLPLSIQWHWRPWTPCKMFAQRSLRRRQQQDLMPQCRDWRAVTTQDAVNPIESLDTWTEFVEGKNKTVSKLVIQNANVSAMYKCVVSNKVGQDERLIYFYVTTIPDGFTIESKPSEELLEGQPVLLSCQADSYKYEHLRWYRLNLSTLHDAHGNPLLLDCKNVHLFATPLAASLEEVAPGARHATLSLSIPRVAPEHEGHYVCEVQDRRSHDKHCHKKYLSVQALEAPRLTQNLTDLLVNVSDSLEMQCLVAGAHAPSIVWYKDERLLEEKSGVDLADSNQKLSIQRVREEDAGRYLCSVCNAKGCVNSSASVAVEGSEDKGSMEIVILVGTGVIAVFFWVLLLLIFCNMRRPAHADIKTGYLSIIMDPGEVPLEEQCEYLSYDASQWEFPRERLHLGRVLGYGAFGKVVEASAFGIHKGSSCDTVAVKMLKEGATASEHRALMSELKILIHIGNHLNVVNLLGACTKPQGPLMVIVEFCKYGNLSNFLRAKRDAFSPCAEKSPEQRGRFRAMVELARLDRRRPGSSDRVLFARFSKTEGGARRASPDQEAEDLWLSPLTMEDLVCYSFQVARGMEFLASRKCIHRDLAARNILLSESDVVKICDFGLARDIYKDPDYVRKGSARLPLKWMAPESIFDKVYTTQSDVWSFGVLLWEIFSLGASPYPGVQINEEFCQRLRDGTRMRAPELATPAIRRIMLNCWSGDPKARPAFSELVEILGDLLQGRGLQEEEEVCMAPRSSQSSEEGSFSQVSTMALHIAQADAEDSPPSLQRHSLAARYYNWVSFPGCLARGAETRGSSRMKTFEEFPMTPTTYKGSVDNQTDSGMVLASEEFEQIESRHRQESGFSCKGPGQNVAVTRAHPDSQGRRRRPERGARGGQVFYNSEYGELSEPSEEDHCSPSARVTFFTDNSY
Summary of the method: as §1

GRK7 = target: T15, GRK7 (Homo sapiens, UniProt Q8WTQ7)
T15 construct: purchased Millipore, Inc. (KinaseProfiler service)
T15 sequence (Q8WTQ7 whole entry): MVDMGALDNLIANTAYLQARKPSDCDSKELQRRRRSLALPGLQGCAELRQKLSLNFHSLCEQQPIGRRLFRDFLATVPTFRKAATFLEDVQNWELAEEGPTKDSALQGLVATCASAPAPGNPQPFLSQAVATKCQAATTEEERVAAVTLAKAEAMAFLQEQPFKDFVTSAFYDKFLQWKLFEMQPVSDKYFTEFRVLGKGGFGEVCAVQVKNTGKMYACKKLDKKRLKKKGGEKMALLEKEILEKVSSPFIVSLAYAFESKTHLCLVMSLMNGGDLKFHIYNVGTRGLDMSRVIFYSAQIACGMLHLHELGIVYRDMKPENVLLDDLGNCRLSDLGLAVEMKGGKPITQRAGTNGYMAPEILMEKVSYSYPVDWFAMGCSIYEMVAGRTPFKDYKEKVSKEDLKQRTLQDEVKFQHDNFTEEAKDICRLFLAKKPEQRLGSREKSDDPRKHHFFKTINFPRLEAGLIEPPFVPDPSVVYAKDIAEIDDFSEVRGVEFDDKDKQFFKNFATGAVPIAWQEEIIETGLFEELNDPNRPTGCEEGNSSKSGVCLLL
Summary of the method: as §1

IR Activated = target: T16, IR Activated (Homo sapiens, UniProt P06213)
T16 construct: purchased Millipore, Inc. (KinaseProfiler service)
Summary of the method: as §1

JAK3 = target: T17, JAK3 (Homo sapiens, UniProt P52333)
T17 construct: purchased Millipore, Inc. (KinaseProfiler service)
Summary of the method: as §1

LIMK1 = target: T18, LIMK1 (Homo sapiens, UniProt P53667)
T18 construct: purchased Millipore, Inc. (KinaseProfiler service)
Summary of the method: as §1

MAPKAP-K3 = target: T19, MAPKAP-K3 (Homo sapiens, UniProt Q16644)
T19 construct: purchased Millipore, Inc. (KinaseProfiler service)
Summary of the method: as §1

MEK1 = target: T20, MEK1 (Homo sapiens, UniProt Q02750)
T20 construct: purchased Millipore, Inc. (KinaseProfiler service)
Summary of the method: as §1

MRCKbeta = target: T21, MRCKbeta (Homo sapiens, UniProt Q9Y5S2)
T21 construct: purchased Millipore, Inc. (KinaseProfiler service)
Summary of the method: as §1

MuSK = target: T22, MuSK (Homo sapiens, UniProt O15146)
T22 construct: purchased Millipore, Inc. (KinaseProfiler service)
Summary of the method: as §1

NEK2 = target: T23, NEK2 (Homo sapiens, UniProt P51955)
T23 construct: purchased Millipore, Inc. (KinaseProfiler service)
T23 sequence (P51955 whole entry): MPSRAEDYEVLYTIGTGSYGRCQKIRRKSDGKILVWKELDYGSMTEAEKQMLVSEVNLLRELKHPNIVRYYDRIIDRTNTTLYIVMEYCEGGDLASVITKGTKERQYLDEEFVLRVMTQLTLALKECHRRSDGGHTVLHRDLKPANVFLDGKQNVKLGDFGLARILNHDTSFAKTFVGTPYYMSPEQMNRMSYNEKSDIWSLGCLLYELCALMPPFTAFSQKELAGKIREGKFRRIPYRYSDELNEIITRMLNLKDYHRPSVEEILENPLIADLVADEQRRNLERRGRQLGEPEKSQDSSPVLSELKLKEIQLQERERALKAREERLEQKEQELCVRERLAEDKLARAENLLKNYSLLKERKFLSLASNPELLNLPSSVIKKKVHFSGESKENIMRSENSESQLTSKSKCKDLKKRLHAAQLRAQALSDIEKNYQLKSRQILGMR
Summary of the method: as §1

PAK6 = target: T24, PAK6 (Homo sapiens, UniProt Q9NQU5)
T24 construct: purchased Millipore, Inc. (KinaseProfiler service)
Summary of the method: as §1

PDGFRbeta = target: T25, PDGFRbeta (Homo sapiens, UniProt P09619)
T25 construct: purchased Millipore, Inc. (KinaseProfiler service)
Summary of the method: as §1

PKAC-alpha = target: T26, PKAC-alpha (Homo sapiens, UniProt P17612)
T26 construct: purchased Millipore, Inc. (KinaseProfiler service)
Summary of the method: as §1

PKCepsilon = target: T27, PKCepsilon (Homo sapiens, UniProt Q02156)
T27 construct: purchased Millipore, Inc. (KinaseProfiler service)
Summary of the method: as §1

PKCiota = target: T28, PKCiota (Homo sapiens, UniProt P41743)
T28 construct: purchased Millipore, Inc. (KinaseProfiler service)
Summary of the method: as §1

PKCzeta = target: T29, PKCzeta (Homo sapiens, UniProt Q05513)
T29 construct: purchased Millipore, Inc. (KinaseProfiler service)
Summary of the method: as §1

PTK6 = target: T30, PTK6 (Homo sapiens, UniProt Q13882)
T30 construct: purchased Millipore, Inc. (KinaseProfiler service)
T30 sequence (Q13882 whole entry): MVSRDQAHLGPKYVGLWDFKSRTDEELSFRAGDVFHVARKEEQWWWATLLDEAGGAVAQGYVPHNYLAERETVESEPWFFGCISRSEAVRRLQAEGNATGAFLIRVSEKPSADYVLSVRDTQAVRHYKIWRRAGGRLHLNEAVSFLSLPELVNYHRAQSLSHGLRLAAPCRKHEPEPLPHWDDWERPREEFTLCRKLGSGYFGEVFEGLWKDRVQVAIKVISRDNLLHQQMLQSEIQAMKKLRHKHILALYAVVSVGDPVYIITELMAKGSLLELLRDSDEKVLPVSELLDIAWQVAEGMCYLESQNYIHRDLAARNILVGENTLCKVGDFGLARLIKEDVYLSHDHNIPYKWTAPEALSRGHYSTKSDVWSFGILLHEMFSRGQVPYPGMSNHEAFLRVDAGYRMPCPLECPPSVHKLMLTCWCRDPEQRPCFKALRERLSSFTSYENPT
Summary of the method: as §1

Pim-1 = target: T31, Pim-1 (Homo sapiens, UniProt P11309)
T31 construct: purchased Millipore, Inc. (KinaseProfiler service)
Summary of the method: as §1

Ret = target: T32, Ret (Homo sapiens, UniProt P07949)
T32 construct: purchased Millipore, Inc. (KinaseProfiler service)
Summary of the method: as §1

Ron = target: T33, Ron (Homo sapiens, UniProt Q04912)
T33 construct: purchased Millipore, Inc. (KinaseProfiler service)
Summary of the method: as §1

Rse = target: T34, Rse (Homo sapiens, UniProt Q06418)
T34 construct: purchased Millipore, Inc. (KinaseProfiler service)
Summary of the method: as §1

Rsk1 = target: T35, Rsk1 (Homo sapiens, UniProt Q15418)
T35 construct: purchased Millipore, Inc. (KinaseProfiler service)
Summary of the method: as §1

Rsk2 = target: T36, Rsk2 (Homo sapiens, UniProt P51812)
T36 construct: purchased Millipore, Inc. (KinaseProfiler service)
Summary of the method: as §1

Rsk3 = target: T37, Rsk3 (Homo sapiens, UniProt Q15349)
T37 construct: purchased Millipore, Inc. (KinaseProfiler service)
Summary of the method: as §1

SGK1 = target: T38, SGK1 (Homo sapiens, UniProt O00141)
T38 construct: purchased Millipore, Inc. (KinaseProfiler service)
Summary of the method: as §1

TAO2 = target: T39, TAO2 (Homo sapiens, UniProt Q9UL54)
T39 construct: purchased Millipore, Inc. (KinaseProfiler service)
Summary of the method: as §1

VRK2 = target: T40, VRK2 (Homo sapiens, UniProt Q86Y07)
T40 construct: purchased Millipore, Inc. (KinaseProfiler service)
Summary of the method: as §1

p38delta = target: T41, p38delta (Homo sapiens, UniProt O15264)
T41 construct: purchased Millipore, Inc. (KinaseProfiler service)
T41 sequence (O15264 whole entry): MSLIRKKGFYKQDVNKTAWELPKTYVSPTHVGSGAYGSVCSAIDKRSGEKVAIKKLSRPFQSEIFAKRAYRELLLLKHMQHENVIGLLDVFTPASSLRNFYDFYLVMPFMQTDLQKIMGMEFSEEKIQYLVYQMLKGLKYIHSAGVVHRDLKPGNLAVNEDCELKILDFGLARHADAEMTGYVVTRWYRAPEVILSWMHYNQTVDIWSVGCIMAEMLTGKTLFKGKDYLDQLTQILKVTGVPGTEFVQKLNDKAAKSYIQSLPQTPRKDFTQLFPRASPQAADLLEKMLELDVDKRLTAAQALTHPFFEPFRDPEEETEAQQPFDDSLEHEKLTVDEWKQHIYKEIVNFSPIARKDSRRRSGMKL
Summary of the method: as §1

## COCCCc1cc(Cl)c(Cl)cc1NC(=O)Nc1c(C)c(-c2cnn(C)c2)nn1-c1ccccc1 [Example 15, 1-(4,5-dichloro-2-(3-methoxypropyl)phenyl)-3-(1′,4-dimethyl-1-phenyl-1H,1′H-[3,4′-bipyrazol]-5-yl)urea]
ARKS
  Avg POC: 97.5 POC
AURKA
  Avg POC: 113.5 POC
CDK5/p25
  Avg POC: 106 POC
CHK1
  Avg POC: 118 POC
CK1gamma1
  Avg POC: 99.5 POC
CK1gamma2
  Avg POC: 120 POC
DCAMKL2
  Avg POC: 136 POC
ERK1
  Avg POC: 103.5 POC
ERK2
  Avg POC: 108 POC
EphB4
  Avg POC: 132.5 POC
FAK2
  Avg POC: 102.5 POC
FGFR1
  Avg POC: 111.5 POC
Flt1
  Avg POC: 97.5 POC
Flt4
  Avg POC: 91 POC
GRK7
  Avg POC: 115 POC
IR Activated
  Avg POC: 119.5 POC
JAK3
  Avg POC: 111 POC
LIMK1
  Avg POC: 93.5 POC
MAPKAP-K3
  Avg POC: 112.5 POC
MEK1
  Avg POC: 121.5 POC
MRCKbeta
  Avg POC: 105.5 POC
MuSK
  Avg POC: 100 POC
NEK2
  Avg POC: 88.5 POC
PAK6
  Avg POC: 148 POC
PDGFRbeta
  Avg POC: 134 POC
PKAC-alpha
  Avg POC: 149 POC
PKCepsilon
  Avg POC: 97 POC
PKCiota
  Avg POC: 68 POC
PKCzeta
  Avg POC: 103 POC
PTK6
  Avg POC: 124 POC
Pim-1
  Avg POC: 108 POC
Ret
  Avg POC: 91.5 POC
Ron
  Avg POC: 108.5 POC
Rse
  Avg POC: 109 POC
Rsk1
  Avg POC: 118 POC
Rsk2
  Avg POC: 136.5 POC
Rsk3
  Avg POC: 104 POC
SGK1
  Avg POC: 124 POC
TAO2
  Avg POC: 126 POC
VRK2
  Avg POC: 94 POC
p38delta
  Avg POC: 100.5 POC
